In PubChem BioAssay (NCI):
Values joined by “and” are separate entries in the source; they are usually repeats but may differ in a detail not shown here. Identical values can stand only once.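 Grown in 96-well plates, cells were treated for 48 hours with each compound at five concentrations. Insufficient inhibition: endpoint recorded as highest concentration tested. GI50 = concentration required for 50% inhibition of growth. At the TGI there is no net growth.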

Legend:
Experiment in all cases: NCI tumour cell line growth inhibition, 48 h
ACHN renal = system: ACHN renal
HOP-92 NSCLC = system: HOP-92 NSCLC
SF-295 CNS = system: SF-295 CNS
CAKI-1 renal = system: CAKI-1 renal
SK-MEL-2 melanoma = system: SK-MEL-2 melanoma
RXF 393 renal = system: RXF 393 renal
OVCAR-5 ovarian = system: OVCAR-5 ovarian
MDA-MB-435 = system: MDA-MB-435
PC-3 prostate = system: PC-3 prostate
NCI/ADR-RES ovarian = system: NCI/ADR-RES ovarian

SMILES	TGI (ACHN renal) [µM]	TGI (HOP-92 NSCLC) [µM]	TGI (SF-295 CNS)	TGI (CAKI-1 renal) [µM]	TGI (SK-MEL-2 melanoma)	TGI (RXF 393 renal)	TGI (OVCAR-5 ovarian) [µM]	GI50 (MDA-MB-435) [µM]	TGI (MDA-MB-435) [µM]	GI50 (ACHN renal) [µM]	GI50 (HOP-92 NSCLC) [µM]	GI50 (PC-3 prostate) [µM]	TGI (PC-3 prostate) [µM]	GI50 (SF-295 CNS) [µM]	GI50 (CAKI-1 renal)	GI50 (SK-MEL-2 melanoma) [µM]	GI50 (OVCAR-5 ovarian)	GI50 (NCI/ADR-RES ovarian)	TGI (NCI/ADR-RES ovarian) [µM]	GI50 (RXF 393 renal) [µM]
CC(NC(=O)C(=O)N/N=C1\C[C@@H](c2ccccc2)Nc2ccccc21)c1ccccc1 (stereo not given in full)	> 100	> 100	> 100 µM	> 100	> 100 µM	> 100 µM	> 100													
Cn1c(=O)c(C(=O)NC(=O)NCCCCCOC(=O)CCCCCCCCCCC(=O)OCCCCCNC(=O)NC(=O)c2cn(Cc3ccccc3)c(=O)n(C)c2=O)cn(Cc2ccccc2)c1=O	> 100	> 100		> 100	> 100 µM	> 100 µM	> 100													
CC1(C(=O)O)CCOc2ccccc21 (stereo not given)	> 100	> 100	> 100 µM	> 100		> 100 µM	> 100													
COC12CCC(C(C(=O)c3ccccc3)=C1C(=O)c1ccccc1)C(O)C2 (stereo not given)		> 100	> 100 µM	> 100	> 100 µM															
Cc1ccc(Nc2cc(C)nc(NCCCNc3ccnc4cc(Cl)ccc34)n2)cc1	2.91	2.89	2.92 µM	2.85	3.34 µM		4.62	1.41	2.7	1.54	1.16	1.57	3.79	1.51	1.46 µM	1.83	1.85 µM	1.73 µM	3.54	
Cc1c(-c2nnc(-c3ccccc3)o2)c(=O)n(-c2ccccc2)n1C	> 100	> 100	> 100 µM		> 100 µM	> 100 µM														
CC(C)C(=O)[O-].CC(C)C(=O)[O-].N.N.N.N.[Co+3].[O-][Cl+3]([O-])([O-])[O-]	> 100	> 100	> 100 µM		> 100 µM		> 100			> 100	> 100			> 100		> 100	> 100 µM			
NCc1c(C(N)=O)ncn1Cc1ccccc1	> 100	> 100	> 100 µM	> 100		> 100 µM														
CCCCCCCCCCCCCCCCCCOc1ccccc1CC(=O)NCC[N+](C)(C)C	49.2	7.16	38.9 µM	36.7	44.7 µM		12.8	10.6	55.1	12.9	1.92			5.09	4.39 µM	12.7	2.68 µM	22.6 µM	62.6	
CCOC(=O)C(C(=O)OCC)C(=O)c1ccccc1C(=O)c1ccccc1	> 100	> 100	> 100 µM	> 100	> 100 µM	> 100 µM	> 100		> 100										> 100	
CC(C)C[C@H](NC(=O)[C@@H](NC(=O)c1cccc(-c2ccccc2)n1)[C@@H](C)O)B(O)O	> 11.1	0.119	0.0553 µM and 0.0262 µM		0.0187 µM and < 0.0195 µM	0.0151 µM and < 0.0119 µM	0.0513			0.00408	0.0209	0.0236	1.94	0.0102	0.0146 µM and < 0.0174 µM	0.00387	0.00843 µM and < 0.0112 µM	0.345 µM and 0.249 µM	6.19	0.00414
CCOC(=O)N1C(c2ccccc2)C=CC(c2ccccc2)N1C(=O)OCC (stereo not given)	> 100	> 100	> 100 µM	> 100	> 100 µM	> 100 µM	> 100													
Nc1c(C(=O)N/N=C/c2ccc(-c3cc(Cl)c(Cl)cc3Cl)o2)cnn1-c1ccnc2c(C(F)(F)F)cccc12	> 100	7	> 100 µM	> 100	34.3 µM		> 100	3.85	> 100	3.55	2.57	2.09	6.03	3.27	4.21 µM	5.31	5.29 µM	3.58 µM	87.9	
O=C(Nc1ccc(Br)cc1)C(=O)C(C(=O)c1ccccc1F)C1OC(=O)c2ccccc21 (stereo not given)	> 100	65.2		94.2	68.6 µM		> 100													
CCOC(=O)C1=C(Nc2ccc(Br)cc2)OC/C1=N\NC(=O)c1ccccc1O	> 100		> 100 µM	> 71.1	> 100 µM	14.2 µM	> 100													
CC1CCCc2c1c1ccc3c(O)cccc3c1oc2=O (stereo not given)	> 100		33.8 µM	> 100	> 100 µM	73.2 µM	> 100													
O=S(=O)(NC1=NCCN1C(=S)SN1CCn2c1nsc2=S)c1ccccc1Cl	> 100	89.7	61 µM	41.6	40 µM	46.5 µM	27.7	8.67	29.2	24.5	11			21.4	12.3 µM	16.9	12.2 µM	27.7 µM	> 100	4.38
N#Cc1ccc(Oc2cccc(Oc3ccccc3)c2)cc1C#N	> 100	> 100	> 100 µM	> 100	> 100 µM	> 100 µM	> 100				> 100				> 100 µM		> 100 µM			
CCCCn1c2ccccc2c2ccc3c(c21)C(=O)C=CC3=O	> 100	> 100	> 100 µM	> 100	> 100 µM		> 100													
O=C(Nc1nc2ccc([N+](=O)[O-])cc2s1)C(=O)C(C(=O)c1ccncc1)C1OC(=O)c2ccccc21 (stereo not given)	> 100	> 100		> 100		> 100 µM	> 100													
CC(=O)[O-].[Zn].c1ccc(/C(=N\Nc2ccccn2)c2ccccn2)cc1	5.03	13.3	12.3 µM	6.33	10.6 µM					0.0241	0.0122			0.46						
CCC1(NC(=O)c2cc(F)c(F)c(F)c2F)C(=O)NC(=O)N(C(C)C)C1=O (stereo not given)	> 100	63.7	87.3 µM	> 100		59.1 µM	> 100	15.8	36.2	73.5	17.4	21.6	63.6	27.4	29.8 µM		> 100 µM	31.8 µM	88.3	25.3
